Measured values reported in patent US20250255961A1, “METHODS TO STIMULATE IMMUNE RESPONSES TO MUTANT RAS USING NUCLEATED CELLS” (STEMCELL TECHNOLOGIES CANADA INC., priority 2020, published 2025).

What was measured:
[1] = system: K-Ras G12V responder T cells; experiment: IFN-γ ELISPOT: peptide-loaded HLA-A*11+ human PBMCs co-cultured with K-Ras G12V responder T cells; format: cell-based; conditions: Example 4, FIG. 4, HLA-A*11+ human PBMCs (donor 296) SQZ-loaded with 100 μM SLP
Method: (§1) Human PBMCs from HLA-A*11^+ donor (donor 296) were prepared at a density of 10×10^6/mL, SQZ processed at room temperature through a constriction of 4.5 μm width, 10 μm length and 70 μm depth at 60 psi with 100 μM of the respective K-Ras synthetic long peptide (G12V^1-16, G12V^2-19) or with vehicle control (DMSO) in RPMI medium. Following SQZ-processing, the SQZ-loaded PMBCs were centrifuged, and the supernatant was discarded. The cells were subsequently washed once in R10 medium (RPMI+10% FCS+1% Pen/Strep), then washed twice in CTL medium (supplemented with 1% glutamine), before resuspension in fresh CTL medium (supplemented with 1% glutamine).
2×10^5 SQZ-loaded PBMCs were then placed in co-culture with 5×10^4 K-Ras G12V responder T cells (generated in transgenic mice) in an IFN-γ ELISPOT plate. As a positive control, 10 μM K-Ras G12V^7-16 peptide containing the minimal epitope was added directly to untreated PBMCs and responder cells in the ELISPOT plate (peptide spike). The plate was incubated overnight at 37° C. and then developed/quantified according to manufacturer's instructions.
as §1, with “donor” for “donor (donor 296)”, “constriction with” for “constriction of”, “peptide (K-Ras G12V^3-17, K-Ras G12V^3-42)” for “peptide (G12V^1-16, G12V^2-19)”, “medium. An irrelevant synthetic long peptide (HPV-E7.6) was used as a negative control.” for “medium.”
as §1, with “donor” for “donor (donor 296)”, “10× 10^6/mL,” for “10×10^6/mL,”, “(wild type K-Ras^1-16, G12V^1-16, wild type K-Ras^2-22, or G12V^2-22)” for “(G12V^1-16, G12V^2-19)”
as §1, with “donor” for “donor (donor 296)”, “of a single” for “of the respective”, “peptide (G12V^1-16” for “peptide (G12V^1-16, G12V^2-19)”, “or G12V^2-19), or a combination of two K-Ras synthetic long peptides which are each at 100 μM (G12V^1-16 plus G12D^1-16 or G12V^2-19 plus G12D^1-16) or” for “or with”, “glutamine). […]” for “glutamine).”

[2] = system: K-Ras G12V responder T cells; experiment: as above; format: cell-based; conditions: Example 8, FIG. 8; HLA-A*11+ human PBMCs SQZ-loaded with one SLP or a combination of two SLPs, each at 100 μM

Sequence: TEYKLVVVGAVGVGKSAL [G12V^2-19, K-Ras G12V synthetic long peptide, residues 2-19]
- IFN-γ secretion by K-Ras-G12V responder T cells upon co-culture [1]: significantly increased
- IFN-γ secretion by K-Ras-G12V responder T cells upon co-culture ([1]; listed as K-Ras-G12V^2-19): increased amount
- IFN-γ expressing K-Ras-G12V responder T cells upon co-culture [2]: significant increases
